Test results taken from patent US20220047752A1, “BIOLOGICAL INDICATOR FOR DISINFECTION PROCESS CHALLENGE DEVICE” (3M INNOVATIVE PROPERTIES COMPANY, priority 2016, published 2022).

Experiments:
[1] = tested on: Aspergillus brasiliensis (ATCC 16404) spores; assay: Liquid disinfection process in AER basin, indicator device not connected to the pump; spore viability in malt extract broth; type: cell-based; details: 0.35% OPA (minimum effective concentration), 5 minute contact at 25 C, two rinses with purified water; approx. 1x10^6 spores on carrier; broth incubated 7 days at 30 C
Experimental: (§1) Aspergillus brasiliensis (ATCC 16404) was inoculated onto the surface of a potato dextrose agar culture and incubated 14 days at 25-30° C. After the incubation period, the surface of the plate was flooded with an aqueous solution of glycerol (10% v/v) and Tween 20 detergent (0.05% v/v). The viable fungal spore population was determined by standard plate counting method using PETRIFILM™ Rapid Yeast and Mold Count Plates (RYM) obtained from 3M Company (St. Paul, Minn.). The plates were incubated at 28-30° C. for 2-3 days. The resulting spore suspension was stored at −80 degrees C. until use.
(§2) The spore suspension was diluted in water to a concentration of approximately 10^8 spores/mL. Ten microliters (approximately 1×10^6 spores) of the diluted spore suspension was pipetted onto a circular disc (approximately 0.25 inch (6.4 mm) diameter) nonwoven carrier material (Sontara® grade 8005 nonwoven material obtained from Dupont (Candler, N.C.)). The spore-coated discs were allowed to dry for 24 hours at room temperature before assembling the indicator device.
(§3) Indicator devices were made by inserting aerosol-filter pipet tips (Part #16466-008; sterile aerosol 1000 uL pipet tips; VWR; Radnor, Pa.) into a piece of hollow tubing (Part #14-169-7C; PVC tubing, 0.25-inch (6.4 mm) inner diameter; Fisher Scientific; Waltham, Mass.), as shown in FIGS. 13-14. […]

[2] = tested on: Aspergillus brasiliensis (ATCC 16404) spores; assay: Flow-through disinfection, indicator device connected to the AER flow pump system; spore viability in malt extract broth; type: cell-based; details: 0.35% OPA at 25 C pumped through device at approx. 25 ml/min, incubated up to 7 days, duplicate devices
Experimental: as §1, §2, §3

Measured: growth of spores in malt extract broth after contact with the liquid disinfectant

O=Cc1ccccc1C=O [OPA, ortho-phthalaldehyde]
No growth: [1] | [2]; 30 seconds contact | [2]; 5 minutes contact
